The text below walks through data of patent publication US20200188466A1, “COMPOSITIONS OF SCHISANDRA EXTRACTS AND METHODS THEREOF” (Reyoung Corporation, priority 2017, published 2020).

This data set is described as follows: in vivo. Also on record: species or system Sprague Dawley rats. As to conditions: male, Sprague Dawley, rat, po, 2.4 mg/kg. On the procedure:
42 Male Sprague Dawley rats (weight, 220-280 g) were maintained on a 12-hour light/dark cycle with free access to water and lab chow for 10-14 hours prior to the experiment. Rats were randomly divided into 7 groups (n=6/group) and groups 2-7 received 0 mg/kg, 6.0 mg/kg, and 12.0 mg/kg, 24.0 mg/kg, 48.0 mg/kg and 60.0 mg/kg of Schisandrin A in 1% CMC-Na (300-800 cps) via oral administration, respectively. After 5 minutes, all the groups received 2.4 mg/kg of triptolide in a solution of 2% DMSO-98% Sterile Water via oral administration.
After triptolide treatment, blood samples were collected from individual rat at 5 min, 10 min, 15 min, 20 min, 30 min, 45 min, 1 h, 2 h, 4 h, 8 h, and 24 h, respectively. Plasma was separated by centrifugation at 8000 rpm for 6 minutes at 4° C. and kept at −80° C. until analysis. Plasma homogenate was injected into LC-MS/MS for analysis.

Where the note is “AUC0→t of triptolide”, `CC(C)[C@]12O[C@H]1[C@@H]1O[C@]13[C@]1(O[C@H]1C[C@H]1C4=C(CC[C@@]13C)C(=O)OC4)[C@@H]2O` [triptolide] came in with an AUC(0-t) of 31.5 ± 25.4 ng·h/mL. Moreover, the total exposure AUC(0-inf) (AUC0→∞ of triptolide) turned out to be 31.5 ± 25.4 ng·h/mL. Further, the Cmax (Cmax of triptolide) stood at 56.4 ± 25.1 ng/mL. Also, the MRT last (MRT0→t of triptolide) worked out at 25.8 ± 9.6 min. The MRT inf (MRT0→∞ of triptolide) amounted to 39.6 ± 21 min. Besides, where the note is “T1/2 of triptolide”, the half-life was 25.2 ± 13.8 min. In addition, the Tmax (Tmax of triptolide) is 9.96 ± 5.4 min.
